From PubChem BioAssay AID220 (DTP/NCI, 2004)
“And” between values parts separate entries of the source, which are not always exact repeats. Equal entries are not always repeated. Inconclusive results are not listed.

Tested on: CD8F1 mice, subcutaneous mammary adenocarcinoma, T/C%
Test: NCI In Vivo Anticancer Drug Screen. Data for tumor model Mammary Adenocarcinoma CD8F1 (subcutaneous) in CD8F1
Details: higher = larger tumour
Summary of the method: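 Mice carrying transplanted tumors received test compound, and survival or tumor size was recorded. Each value is the treated-group measurement divided by the corresponding measurement in vehicle-dosed controls.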

[1] = endpoint: median tumor weight (est.), dose: 50.0 mg/kg/injection, schedule: Q07DX005 (ip), vehicle: saline with Tween-80
[2] = endpoint: median tumor weight (est.), dose: 100.0 mg/kg/injection, schedule: Q07DX005 (ip), vehicle: saline with Tween-80
[3] = endpoint: median tumor weight (est.), dose: 200.0 mg/kg/injection, schedule: Q07DX005 (ip), vehicle: saline with Tween-80
[4] = endpoint: median tumor weight (est.), dose: 400.0 mg/kg/injection, schedule: Q07DX005 (ip), vehicle: saline with Tween-80

In the case of `OCC1OC(n2cnc3c(=S)nc[nH]c32)C(O)C1O` (centres undefined), the T/C [1] is reported as 23 % of control, the T/C [2] is reported as 34 % of control and the T/C [3] is reported as 13 % of control and 37 % of control. For the same molecule, the T/C [4] was 8 % of control and 15 % of control, the T/C (endpoint: median tumor weight change, dose: 25.0 mg/kg/injection, schedule: Q01DX001 (ip), vehicle: saline with Tween-80) was 73 % of control and the T/C (endpoint: median tumor weight change, dose: 50.0 mg/kg/injection, schedule: Q01DX001 (ip), vehicle: saline with Tween-80) was 71 % of control. The T/C (endpoint: median tumor weight change, dose: 100.0 mg/kg/injection, schedule: Q01DX001 (ip), vehicle: saline with Tween-80) was 78 % of control, the T/C (endpoint: median tumor weight change, dose: 125.0 mg/kg/injection, schedule: Q01DX001 (ip), vehicle: saline) was 78 % of control and the T/C (endpoint: median tumor weight change, dose: 200.0 mg/kg/injection, schedule: Q01DX001 (ip), vehicle: saline with Tween-80) was 56 % of control. The T/C (endpoint: median tumor weight change, dose: 250.0 mg/kg/injection, schedule: Q01DX001 (ip), vehicle: Klucel (hydroxypropylcellulose) (HPC)) was 89 % of control, the T/C (endpoint: median tumor weight change, dose: 250.0 mg/kg/injection, schedule: Q01DX001 (ip), vehicle: saline) was 72 % of control and the T/C (endpoint: median tumor weight change, dose: 400.0 mg/kg/injection, schedule: Q01DX001 (ip), vehicle: saline with Tween-80) was 60 % of control. For the same molecule, the T/C (endpoint: median tumor weight change, dose: 500.0 mg/kg/injection, schedule: Q01DX001 (ip), vehicle: Klucel (hydroxypropylcellulose) (HPC)) was 79 % of control, the T/C (endpoint: median tumor weight change, dose: 500.0 mg/kg/injection, schedule: Q01DX001 (ip), vehicle: saline) was 97 % of control and the T/C (endpoint: median tumor weight change, dose: 1000.0 mg/kg/injection, schedule: Q01DX001 (ip), vehicle: Klucel (hydroxypropylcellulose) (HPC)) was 52 % of control. For the same molecule, the T/C (endpoint: median tumor weight change, dose: 1000.0 mg/kg/injection, schedule: Q01DX001 (ip), vehicle: saline) was 53 % of control, the T/C (endpoint: median tumor weight change, dose: 2000.0 mg/kg/injection, schedule: Q01DX001 (ip), vehicle: Klucel (hydroxypropylcellulose) (HPC)) was 26 % of control and the T/C (endpoint: median tumor weight change, dose: 2000.0 mg/kg/injection, schedule: Q01DX001 (ip), vehicle: saline) was 67 % of control.
For `CO[C@@]12[C@H](COC(N)=O)C3=C(C(=O)C(C)=C(N)C3=O)N1C[C@@H]1N[C@@H]12`, the T/C (endpoint: median tumor weight (est.), dose: 0.37 mg/kg/injection, schedule: Q07DX006 (ip), vehicle: saline) was 63 % of control, the T/C (endpoint: median tumor weight (est.), dose: 0.75 mg/kg/injection, schedule: Q07DX006 (ip), vehicle: saline) was 47 % of control and the T/C (endpoint: median tumor weight (est.), dose: 1.5 mg/kg/injection, schedule: Q07DX006 (ip), vehicle: saline) was 27 % of control.
In the case of `C=C1C(=O)OCC2C(C(=O)O)=CC3C(C)C(C)=CC123` (centres undefined), the T/C (endpoint: median tumor weight (est.), dose: 10.0 mg/kg/injection, schedule: Q07DX005 (ip), vehicle: Klucel (hydroxypropylcellulose) (HPC)) is reported as 101 % of control, the T/C (endpoint: median tumor weight (est.), dose: 20.0 mg/kg/injection, schedule: Q07DX005 (ip), vehicle: Klucel (hydroxypropylcellulose) (HPC)) is reported as 95 % of control and 105 % of control and the T/C (endpoint: median tumor weight (est.), dose: 40.0 mg/kg/injection, schedule: Q07DX005 (ip), vehicle: Klucel (hydroxypropylcellulose) (HPC)) is reported as 100 % of control and 114 % of control. The T/C (endpoint: median tumor weight (est.), dose: 80.0 mg/kg/injection, schedule: Q07DX005 (ip), vehicle: Klucel (hydroxypropylcellulose) (HPC)) was 75 % of control and 85 % of control and the T/C (endpoint: median tumor weight (est.), dose: 160.0 mg/kg/injection, schedule: Q07DX005 (ip), vehicle: Klucel (hydroxypropylcellulose) (HPC)) was 101 % of control.
For `COc1cc2oc(=O)ccc2cc1[C@@H]1OC(=O)C2(C)O[C@@H]12` (some centres undefined), the T/C (endpoint: median tumor weight (est.), dose: 0.94 mg/kg/injection, schedule: Q07DX005 (ip), vehicle: water) was 174 % of control, the T/C (endpoint: median tumor weight (est.), dose: 3.75 mg/kg/injection, schedule: Q07DX005 (ip), vehicle: water) was 101 % of control and the T/C (endpoint: median tumor weight (est.), dose: 7.5 mg/kg/injection, schedule: Q07DX005 (ip), vehicle: water) was 105 % of control. The T/C (endpoint: median tumor weight (est.), dose: 15.0 mg/kg/injection, schedule: Q07DX005 (ip), vehicle: water) was 124 % of control.
For `O=Cc1ccc(O)c(O)c1`, the T/C (endpoint: median tumor weight (est.), dose: 100.0 mg/kg/injection, schedule: Q07DX005 (ip), vehicle: suspension in saline) was 160 % of control.
In the case of `C[CH2][Ge]1([CH2]C)[CH2]CC2(CCN(CCCN(C)C)C2)C[CH2]1`, the T/C (endpoint: mean tumor weight, dose: 25.0 mg/kg/injection, schedule: Q04DX009 (ip), vehicle: saline) is reported as 113 % of control, the T/C (endpoint: mean tumor weight, dose: 50.0 mg/kg/injection, schedule: Q04DX009 (ip), vehicle: saline) is reported as 87 % of control and the T/C (endpoint: mean tumor weight, dose: 100.0 mg/kg/injection, schedule: Q04DX009 (ip), vehicle: saline) is reported as 40 % of control. For the same molecule, the T/C (endpoint: median tumor weight (est.), dose: 2.0 mg/kg/injection, schedule: Q07DX005 (ip), vehicle: saline) was 67 % of control, the T/C (endpoint: median tumor weight (est.), dose: 4.0 mg/kg/injection, schedule: Q07DX005 (ip), vehicle: saline) was 57 % of control and the T/C (endpoint: median tumor weight (est.), dose: 16.0 mg/kg/injection, schedule: Q07DX005 (ip), vehicle: saline) was 74 % of control. For the same molecule, the T/C (endpoint: median tumor weight (est.), dose: 32.0 mg/kg/injection, schedule: Q07DX005 (ip), vehicle: saline) was 55 % of control and 68 % of control and the T/C (endpoint: median tumor weight (est.), dose: 64.0 mg/kg/injection, schedule: Q07DX005 (ip), vehicle: saline) was 67 % of control and 77 % of control.
With `NC(=O)c1ccc[n+](Cc2c(Cl)cccc2Cl)c1` the T/C (endpoint: median tumor weight (est.), dose: 3.0 mg/kg/injection, schedule: Q07DX005 (ip), vehicle: saline) was 171 % of control, the T/C (endpoint: median tumor weight (est.), dose: 6.0 mg/kg/injection, schedule: Q07DX005 (ip), vehicle: saline) was 102 % of control and the T/C (endpoint: median tumor weight (est.), dose: 12.0 mg/kg/injection, schedule: Q07DX005 (ip), vehicle: saline) was 211 % of control. The T/C (endpoint: median tumor weight (est.), dose: 48.0 mg/kg/injection, schedule: Q07DX005 (ip), vehicle: saline) was 186 % of control.
`CCC(/C=C/C1OC(=O)C=CC1C)=C\C(C)C/C=C/C(C)=C/C(C)C(=O)C(C)C(O)C(C)C/C(C)=C/C(=O)O` (centres undefined) was tested, and the T/C (endpoint: median tumor weight change, dose: 200.0 mg/kg/injection, schedule: Q01DX001 (ip), vehicle: saline + alcohol) was 56 % of control, the T/C (endpoint: median tumor weight change, dose: 400.0 mg/kg/injection, schedule: Q01DX001 (ip), vehicle: saline + alcohol) was 49 % of control and the T/C (endpoint: median tumor weight change, dose: 800.0 mg/kg/injection, schedule: Q01DX001 (ip), vehicle: saline + alcohol) was 56 % of control. For the same molecule, the T/C (endpoint: median tumor weight change, dose: 1600.0 mg/kg/injection, schedule: Q01DX001 (ip), vehicle: saline + alcohol) was 75 % of control and the T/C (endpoint: median tumor weight change, dose: 3200.0 mg/kg/injection, schedule: Q01DX001 (ip), vehicle: saline + alcohol) was 61 % of control.
For `CCCCCCC1C=Cc2ccccc21` (centres undefined), the T/C (endpoint: median tumor weight (est.), dose: 6.25 mg/kg/injection, schedule: Q07DX005 (ip), vehicle: Klucel (hydroxypropylcellulose) (HPC)) was 65 % of control, the T/C (endpoint: median tumor weight (est.), dose: 12.5 mg/kg/injection, schedule: Q07DX005 (ip), vehicle: Klucel (hydroxypropylcellulose) (HPC)) was 61 % of control and the T/C (endpoint: median tumor weight (est.), dose: 25.0 mg/kg/injection, schedule: Q07DX005 (ip), vehicle: Klucel (hydroxypropylcellulose) (HPC)) was 84 % of control. The T/C (endpoint: median tumor weight (est.), dose: 50.0 mg/kg/injection, schedule: Q07DX005 (ip), vehicle: Klucel (hydroxypropylcellulose) (HPC)) was 86 % of control and the T/C (endpoint: median tumor weight (est.), dose: 100.0 mg/kg/injection, schedule: Q07DX005 (ip), vehicle: Klucel (hydroxypropylcellulose) (HPC)) was 66 % of control.
`Oc1c(Cl)cc(Cl)cc1C1N2CCCCC2C2c3cccn3-c3ccccc3N21` (centres undefined) was tested, and the T/C (endpoint: median tumor weight change, dose: 125.0 mg/kg/injection, schedule: Q01DX001 (ip), vehicle: saline with Tween-80) was 69 % of control, the T/C (endpoint: median tumor weight change, dose: 250.0 mg/kg/injection, schedule: Q01DX001 (ip), vehicle: saline with Tween-80) was 85 % of control and the T/C (endpoint: median tumor weight change, dose: 500.0 mg/kg/injection, schedule: Q01DX001 (ip), vehicle: saline with Tween-80) was 58 % of control. The T/C (endpoint: median tumor weight change, dose: 1000.0 mg/kg/injection, schedule: Q01DX001 (ip), vehicle: saline with Tween-80) was 68 % of control and the T/C (endpoint: median tumor weight change, dose: 2000.0 mg/kg/injection, schedule: Q01DX001 (ip), vehicle: saline with Tween-80) was 79 % of control.
In the case of `c1ccc2sc(SSN3CC4CCC(CC4)C3)nc2c1`, the T/C (endpoint: median tumor weight (est.), dose: 12.5 mg/kg/injection, schedule: Q07DX005 (ip), vehicle: saline with Tween-80) is reported as 26 % of control, the T/C (endpoint: median tumor weight (est.), dose: 25.0 mg/kg/injection, schedule: Q07DX005 (ip), vehicle: saline with Tween-80) is reported as 33 % of control and the T/C [1] is reported as 101 % of control. For the same molecule, the T/C [2] was 81 % of control, the T/C [3] was 62 % of control and the T/C [4] was 53 % of control.
`COc1cc2c(c(OC)c1OC)-c1ccc(OC)c(=O)cc1[C@@H](NC(=O)CCl)CC2` was tested, and the T/C (endpoint: median tumor weight change, dose: 5.0 mg/kg/injection, schedule: Q01DX001 (ip), vehicle: saline with Tween-80) was 76 % of control.
For `CCN(CC)CCNc1ccc(CO)c2sc3ccccc3c(=O)c12`, the T/C (endpoint: median tumor weight (est.), dose: 6.25 mg/kg/injection, schedule: Q07DX005 (ip), vehicle: water) was 62 % of control, the T/C (endpoint: median tumor weight (est.), dose: 12.5 mg/kg/injection, schedule: Q07DX005 (ip), vehicle: clinical formulation) was 120 % of control and the T/C (endpoint: median tumor weight (est.), dose: 12.5 mg/kg/injection, schedule: Q07DX005 (ip), vehicle: water) was 67 % of control. The T/C (endpoint: median tumor weight (est.), dose: 25.0 mg/kg/injection, schedule: Q07DX005 (ip), vehicle: clinical formulation) was 82 % of control, the T/C (endpoint: median tumor weight (est.), dose: 25.0 mg/kg/injection, schedule: Q07DX005 (ip), vehicle: water) was 51 % of control and the T/C (endpoint: median tumor weight (est.), dose: 50.0 mg/kg/injection, schedule: Q07DX005 (ip), vehicle: clinical formulation) was 53 % of control. For the same molecule, the T/C (endpoint: median tumor weight (est.), dose: 50.0 mg/kg/injection, schedule: Q07DX005 (ip), vehicle: water) was 39 % of control, the T/C (endpoint: median tumor weight (est.), dose: 100.0 mg/kg/injection, schedule: Q07DX005 (ip), vehicle: clinical formulation) was 17 % of control and the T/C (endpoint: median tumor weight (est.), dose: 100.0 mg/kg/injection, schedule: Q07DX005 (ip), vehicle: water) was 3 % of control.
